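Tested at 5 concentrations; 48 h exposure; 96-well plates; endpoints linearly interpolated, else capped at highest concentration. At the TGI there is no net growth.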
Tests used:
Experiment in all cases: NCI anticancer screen, dose series, 48 h
[1] = system: DMS 273 small cell lung
[2] = system: DLD-1 colon
[3] = system: KM20L2 colon
[4] = system: LXFL 529 NSCLC
[5] = system: SNB-78 CNS
[6] = system: HOP-18 NSCLC
[7] = system: DMS 114 small cell lung
[8] = system: XF 498 CNS
[9] = system: RXF-631 renal

Compound | TGI [1] [µM] | TGI [2] [µM] | TGI [3] [µM] | TGI [4] [µM] | TGI [5] [µM] | TGI [6] [µM] | TGI [7] [µM] | TGI [8] [µM] | TGI [9] [µM]
NC(=O)N=C(N(Cc1ccccc1)Cc1ccccc1)N(Cc1ccccc1)Cc1ccccc1 | > 100 | > 100 | > 100 | > 100 | > 100 |  |  |  | 
Nn1c(NNC(=O)C(=O)Nc2cc(Cl)c(Cl)cc2Cl)n[nH]c1=S |  | > 100 | > 100 | > 100 | > 100 | > 100 | > 100 | > 100 | 
O=C(CSc1nnc(-c2ccc(N=Cc3ccc(Cl)cc3)cc2)o1)Nc1ccc(Cl)cc1Cl | 88.7 | 60.5 | > 100 | 96.9 | > 100 | 39.8 |  | 47.9 | 
Cc1c(/C=N/NC(=O)c2cc(Br)cc(Br)c2O)c(=O)n(-c2ccccc2)n1C | > 100 | > 100 | > 100 | > 100 | > 100 |  | 88.8 | 37.9 | 
CC1=C(C(=O)O)N2C(=O)[C@@H](NC(=O)C(c3ccc(O)cc3)N3CSC(=S)N(C(C)C)C3)C2SC1 (some centres not stated) | > 100 | > 100 | > 100 | > 100 | > 100 | > 100 | > 100 | > 100 | 
Cn1cnc(CCc2ccccc2)n1 | > 100 | > 100 | > 100 | > 100 | > 100 | > 100 | > 100 |  | 
CC(C)[C@H]1CO[C@]2(C)[C@@H]3CN(Cc4ccccc4)C[C@@H]3C(=O)N12 | > 100 | > 100 | > 100 | > 100 |  | > 100 | > 100 |  | 
Cc1csc(=S)n1OC(=O)NC1CCCCC1 | > 79.9 | > 100 |  | > 24 | > 100 |  | 44.7 | > 100 | 
O=C1C(Br)=CC2(C=C1Br)CCNC1=C2C(=O)c2ccccc2C1=O |  | 28.4 | 91.8 | 35.1 | > 100 | > 100 | 22.8 |  | 26.6
COc1cc(OC)c2c(c1)C(=O)C(CC(C)O)=CC2=O (configuration not stated) | 37.6 | 28.5 | 31.8 | 26.1 | 32 | 30.4 | 9.21 | 27 | 
CC(=O)OCC1OC(OC2C(CSC3OC(COC(C)=O)C(OC(C)=O)C(OC(C)=O)C3OC(C)=O)OC(OC(C)=O)C(OC(C)=O)C2OC(C)=O)C(OC(C)=O)C(OC(C)=O)C1OC(C)=O (configuration not stated) | > 100 | > 100 | > 100 | > 100 | > 100 |  | > 100 | > 100 | 
COc1cc(Cn2c3ccccc3c3cc(C)c4c(c32)C=CC(C)(CCC=C(C)C)O4)cc2c1[nH]c1ccccc12 (configuration not stated) | > 100 | > 100 | > 100 | > 100 | > 100 | > 100 | > 100 |  | 
